# Legend:
# [1] = tested on: HvGR (Host Versus Graft Reaction) in Rats; test: Inhibitory activities against HvGR in rats, combination with immunosuppressants (Test Example 3); type: in vivo, Lewis rats; conditions: oral 5 ml/kg once daily for 4 successive days; suspensions: cyclosporin A 0.08 mg/5 ml, tacrolimus 0.08 mg/5 ml, Compound A 0.008 mg/5 ml; popliteal lymph node weight
# Protocol: Determination of Inhibitory Activities of Compounds against HvGR (Host Versus Graft Reaction) in Rats (1) Two strains of rats (Lewis rats (male, 6 weeks of age, Charles River Japan Inc.) and […] (male, 7 weeks of age, Japan SLC Inc.) were used. Five rats/group were used. […] Spleen cells were isolated from the spleens of […] or Lewis rats and floated in RPMI1640 medium (Life Technologies Inc.) at a concentration of 1×10^8 cells/ml. 0.1 ml of the medium containing the free-floating spleen cells of […] or 0.1 ml of the medium containing the free-floating spleen cells of Lewis rats were intracutaneously injected into the bilateral foot-pads of hindlimbs of Lewis rats. (3) Administration of Compounds […] In both the “same strain group” (Lewis rats treated with spleen cells of Lewis rats but not with the compounds) and “control group” (Lewis rats treated with the spleen cells of […] but not with the compounds), 0.5% tragacanth solution was orally administered. […] The inhibitory activities of the compounds were calculated from the “HvGR-induced changes in the popliteal lymph node weights” of individual rats in drug-treated group versus the average “HvGR-induced changes in the popliteal lymph node weights” in the control group.
# [2] = tested on: Adjuvant-Induced Arthritis; test: Inhibitory activities against adjuvant-induced arthritis (Test Example 2); type: in vivo, rats (usually Lewis rats); conditions: oral, once daily for 21 successive days; foot swelling volume one day after final administration
# Protocol: Determination of Inhibitory Activities of Compounds against Adjuvant-Induced Arthritis
# (1) Preparation of Adjuvant
# Adjuvant was prepared by suspension of killed Mycobacterium butyricum in mineral oil at a concentration of 2 mg/ml, followed by application of ultrasonic waves.
# (2) Preparation of Test Compound
# Test compounds were suspended or dissolved in 0.5% tragacanth solution.
# (3) Induction of Adjuvant Arthritis
# 0.05 ml of adjuvant solution prepared as described in (1) was intracutaneously injected into the right foot-pad of rats (usually Lewis rats). Five rats/group were usually used. Adjuvant was not injected in one group of rats (normal group).
# (4) Administration of Compound
# Compounds prepared as described in (2) were orally administered to rats at a volume of 5 ml/kg once daily for 21 successive days. 0.5% tragacanth solution was similarly administered to rats in one group injected adjuvant (control group) and a group not injected adjuvant.
# (5) Calculation of Inhibitory Activities of Compounds against Adjuvant Arthritis
# One day after the final drug administration, the foot volume of each rat was measured by an apparatus for determination of the volume. The average value in normal rats was subtracted from the individual values in the drug-treated and control groups. The difference was expressed as the swelling volume. Inhibitory rate of the compound was calculated from the ratio of the individual swelling volume of the rat treated with the compound to the average swelling volume in the control group.
# Inhibitory activities of compounds were expressed as ID50 values (mg/kg) calculated by least squares method based on the doses of the compound and their inhibitory ratios.
# [3] = tested on: Host Versus Graft Reaction in Rats; test: Inhibitory activities against host versus graft reaction (HvGR) in rats (Test Example 1); type: in vivo; conditions: oral, once daily for 4 successive days; HvGR-induced change in popliteal lymph node weight; Lewis rats injected with WKAH/Hkm spleen cells
# Protocol: Determination of Inhibitory Activities of Compounds against Host Versus Graft Reaction in Rats
# (1) Two strains of rats [Lewis rats (male, 6 weeks of age, Charles River Japan Inc.) and WKAH/Hkm rats (male, 7 weeks of age, Japan SLC Inc.) were used. Five rats/group were used.
# Spleen cells were isolated from the spleens of WKAH/Hkm and Lewis rats and floated in RPMI1640 medium (Life Technologies Inc.) at a concentration of 1×10^8 cells/ml. 0.1 ml of the medium containing the free-floating spleen cells of WKAH/Hkm rats or Lewis rats (1×10^7 of the spleen cells) was then intracutaneously injected into the bilateral foot-pads of hindlimbs of Lewis rats.
# (3) Administration of the Compounds
# Compounds were suspended in 0.5% tragacanth solution. The suspended compounds were orally administered to rats in the drug-treated group (Lewis rats injected with spleen cells of WKAH/Hkm rats and treated with the compound) at a volume of 5 ml/kg once daily for 4 successive days starting on the day of spleen cell injection. The tragacanth solution (0.5%) was orally administered, instead of the compound-suspended solution, to rats in the “same strain group” (Lewis rats injected with spleen cells of Lewis rats) and the control group (Lewis rats injected with spleen cells of WKAH/Hkm rats and not treated with the compound).
# (4) Determination of Inhibitory Activities of Compounds against HvGR
# Average weight of the popliteal lymph nodes of the same strain rats was subtracted from individual weights of the popliteal lymph nodes of individual rats (“HvGR-induced changes in weight of the popliteal lymph nodes”). The inhibitory activities of compounds were calculated from the “HvGR-induced changes in weights of the popliteal lymph nodes” of individual rats in the drug-treated group versus the average “HvGR-induced changes in weights of the popliteal lymph nodes” in the control group. The inhibitory activities of compounds were expressed as ID50 values (mg/kg) as calculated by least squares method based on the doses of compounds administered and inhibitory activities at these doses.
# [4] = tested on: Mice GvHD (Graft Versus Host Disease); test: Inhibitory activities against mice GvHD (Test Example 4); type: in vivo, BDF1 mice; conditions: oral 10 ml/kg once daily for 10 successive days; suspensions: cyclosporin A 0.1 mg/10 ml, tacrolimus 0.2 mg/10 ml, Compound B 0.01 mg/10 ml; spleen weight compensated for body weight
# Protocol: Determination of Inhibitory Activities of Compounds against Mice GvHD (Graft Versus Host Disease) (1) Two strains of mice. [BDF1 mice (male, 6 weeks of age, Charles River Japan Inc.) and C57BL/6 mice (male, 7 weeks of age, Charles River Japan Inc.)] were used. Five mice/group (hosts) were used. (2) Induction of GvHD Spleen cells were isolated from the spleens of C57BL/6 mice or BDF1 mice and floated in RPMI1640 medium (Life Technologies Inc.) at a concentration of 2×10^7 cells/ml. 0.5 ml of the medium containing the free-floating spleen cells of C57BL/6 mice) was intravenously injected into the tail vein of BDF1 mice (GvHD induction group) and the same volume of the medium containing free-floating spleen cells of BDF1 mice was intravenously injected into the tail vein of BDF1 mice (the “same strain group”). (3) Administration of Compounds […] Body weight was determined and spleens were weighed, and “spleen weight compensated for the body weight following injection of GvHD” was calculated by dividing the spleen weight by the body weight. […] The inhibitory activities of compounds were calculated from the ratios of individual “spleen weight compensated for body weight following injection of GvHD” to the average “spleen weight compensated for body weight following injection of GvHD” in the control group.
# [5] = tested on: Rejection Response against Skin Transplantation of Mice; test: Inhibitory activities against rejection response against skin transplantation of mice (Test Example 5); type: in vivo; conditions: oral 10 ml/kg once daily for 14 successive days from transplantation; suspensions: cyclosporin A 30 mg/10 ml, tacrolimus 3 mg/10 ml, Compound B 0.1 mg/10 ml; C57BL/6N skin on BALB/cAnN mice
# Text: (1) Two strains of mice [C57BL/6N mice (female, 5 weeks of age, Charles River Japan Inc.) and BALB/cAnN mice (female, 5 weeks of age, Charles River Japan Inc.)] were used. Ten mice/group (transplanted individuals) were used.
# C57BL/6N mice were sacrificed by cervical dislocation and their skins removed. The skins were cut to 8-mm diameter sizes by biopsy punch (MK706, 8 mm, Kai Industries Co., Ltd.). Next, 8 mm diameter sections of the back skins of BALB/cAnN mice anaesthetized with Avertin were removed by biopsy punch. The skin was cut along the edge of the damaged area by fine ophthalmic scissors. The previously cut skins of C57BL/6N mice were transplanted to the removed areas of the skin in BALB/cAnN mice. The transplanted areas were fixed with Aron Alpha (Sankyo Co., Ltd.). […]
# On the 6th day after transplantation (the day of transplantation was defined as day 0), the Coban, SYLKYTEX, sterilized gauze, and Sofratulle were gently removed paying attention not to damage the skin by a pair of scissors. From the next day to 20 days after transplantation, it was determined whether rejection responses occurred in the transplanted skin. This determination was carried out blind, and the median day when the rejection response occurred was calculated.
compound,measurement,setting,value
"CC(N)(CO)CCc1ccc(C(=O)CCCCc2ccccc2)s1.O=C(O)/C=C\C(=O)O (stereo not shown) [Compound A, 2-amino-2-methyl-4-[5-(5-phenylpentanoyl]thiophen-2-yl]butan-1-ol maleate]",HvGR Inhibitory Rate (%),[1],16.0%
"C[C@](N)(CO)CCc1ccc(C#CCCCC2CCCCC2)o1.O=C(O)C(=O)O [Example 2, (2R)-2-Amino-2-methyl-4-[5-(5-cyclohexylpent-1-ynyl)furan-2-yl]butan-1-ol oxalate]",ID50 values,[2],0.0899 mg/kg
same,HvGR ID50 values,[3],0.714 mg/kg
"C[C@](N)(CO)CCc1ccc(C#CCCOC2CCCCC2)o1.O=C(O)C(=O)O [Example 3, (2R)-2-Amino-2-methyl-4-[5-(4-cyclohexyloxybut-1-ynyl)furan-2-yl]butan-1-ol oxalate]",ID50 values,[2],0.0774 mg/kg
same,HvGR ID50 values,[3],0.116 mg/kg
"Cn1c(C#CCCCc2ccccc2)ccc1CC[C@@](C)(N)CO.O=C(O)C(=O)O [Example 9, (2R)-2-Amino-2-methyl-4-[1-methyl-5-(5-phenylpent-1-ynyl)pyrrol-2-yl]butan-1-ol oxalate]",HvGR ID50 values,[3],0.120 mg/kg
"Cn1c(C#CCCOC2CCCCC2)ccc1CC[C@@](C)(N)CO.Cn1c(C#CCCOC2CCCCC2)ccc1CC[C@@](C)(N)CO.O=C(O)C(=O)O [Example 10, (2R)-2-Amino-2-methyl-4-[1-methyl-5-(4-cyclohexyloxybut-1-ynyl)pyrrol-2-yl]butan-1-ol ½-oxalate]",HvGR ID50 values,[3],0.276 mg/kg
"C[C@](N)(CO)CCc1ccc(C#CCCCc2cccc(C(F)(F)F)c2)o1.O=C(O)C(=O)O [Example 15, (2R)-2-Amino-2-methyl-4-{5-[5-(3-trifluoromethylphenyl)pent-1-ynyl]furan-2-yl}butan-1-ol oxalate]",HvGR ID50 values,[3],0.304 mg/kg
"C[C@](N)(CO)CCc1ccc(C#CCCCC2CCCCC2)o1.Cl [Example 19, (2R)-2-Amino-2-methyl-4-[5-(5-cyclohexylpent-1-ynyl)furan-2-yl]butan-1-ol hydrochloride]",ID50 values,[2],0.108 mg/kg
same,HvGR ID50 values,[3],0.097 mg/kg
"C[C@](N)(CO)CCc1ccc(C#CCCOC2CCCCC2)o1.Cl [Example 20, (2R)-2-Amino-2-methyl-4-[5-(4-cyclohexyloxybut-1-ynyl)furan-2-yl]butan-1-ol hydrochloride]",ID50 values,[2],0.102 mg/kg
same,HvGR ID50 values,[3],0.082 mg/kg
"Cl.Cn1c(CC[C@@](C)(N)CO)ccc1C(=O)CCCCc1ccccc1 [Example 33, (2R)-2-Amino-2-methyl-4-[1-methyl-5-(5-phenylpentanoyl)pyrrol-2-yl]butan-1-ol hydrochloride]",ID50 values,[2],0.0941 mg/kg
same,HvGR ID50 values,[3],0.013 mg/kg
same,GvHD Inhibitory Rate (%),[4],−2.9%
same,Median Day of Rejection Response,[5],15.0 days
"C=CCC1C=C(C)CC(C)CC(OC)C2OC(O)(C(=O)C(=O)N3CCCCC3C(=O)OC(C(C)=CC3CCC(O)C(OC)C3)C(C)C(O)CC1=O)C(C)CC2OC (stereo not shown) [Tacrolimus, 17-allyl-1,14-dihydroxy-12-[2-(4-hydroxy-3-methoxycyclohexyl)-1-methylvinyl]-23,25-dimethoxy-13,19,21,27-tetramethyl-11,28-dioxa-4-azatricyclo[22.3.1.0^4,9]octacos-18-ene-2,3,10,16-tetrone, reference compound]",GvHD Inhibitory Rate (%),[4],7.6%
same,HvGR Inhibitory Rate (%),[1],25.8%
same,Median Day of Rejection Response,[5],11.0 days

# — patent publication US7199150B2, “Amino alcohol compounds” (Sankyo Company, Limited, priority 2002, dated 2007)
